In patent EP3822285A1, “VARIANT NISIN PEPTIDES” (University College Cork-National University of Ireland, Cork, priority 2019, dated 2021):
Values after ≈ are worked out from the molar mass of the structure shown. Marks after values point to notes of the source that are not given here.

Columns and labels:
Type in all cases: cell-based
[1] = test system: T. oshimai; assay: Minimum inhibitory concentration assay (Thermus); conditions: pure peptide, mean of triplicate assays
Method: (§1) Minimum inhibitory concentration (MIC) determinations for gram negative Thermus strains were carried out in triplicate in round bottom microtitre plates (Corning). 96 well microtitre plates were pre-treated with bovine serum albumin (BSA) prior to addition of the peptides. Briefly, to each well of the microtire plates 200 µl of d.H2O (filtered with 0.2 µm filter) containing 1% (w/w) BSA was added and incubated at 37°C for 30 mins. The wells were washed with 200 µl of IX phosphate buffered saline (PBS) for 2 times after removing 1% BSA d.H2O. 100 µl of growth media, i.e., Castenholz, was added to each well. […] Target strains were grown overnight as per conditions mention above, 0.5 ml of overnight was subcultured in to 10 mls of fresh Castenholz medium and allowed to grow to an OD600 of ∼0.5. 20µl of this subculture was added to 980µl of media, 150µl of this dilution added to 14.85 ml of growth media. 100µl of this dilution added to each well resulting in a final inoculum of ∼10^5 cfu/ml in 200µl. The plates were incubated at 55° C for 3 days and the MIC was determined as the lowest concentration at which no growth was visible.
(§2) The bioactivity of cell-free supernatant can be influenced by altered diffusion rates, solubility, production or specific activity. To determine to what extent, if any, the bioactivity noted above is due to increased specific activity, nisin A (control) and the derivatives were purified and their molecular weights confirmed by MALDI TOF mass spectrometry (Table: 6) (Figure: 4). These peptides were used to perform minimum inhibitory concentration assays against six Thermus strains, i.e., T. thermophilus HB27, T. scotoductus SE-1, T. rehai, T. oshimai, T. aquaticus and T. brockianus.

[2] = test system: T. thermophilus HB27; assay: Minimum inhibitory concentration assay (Thermus); conditions: pure peptide, mean of triplicate assays
Method: as §1, §2

[3] = test system: T. scotoductus SE-1; assay: Minimum inhibitory concentration assay (Thermus); conditions: pure peptide, mean of triplicate assays
Method: as §1, §2

[4] = test system: T. aquaticus; assay: Minimum inhibitory concentration assay (Thermus); conditions: for MIC: pure peptide, mean of triplicate assays
Method: as §1, §2

[5] = test system: T. rehai; assay: Minimum inhibitory concentration assay (Thermus); conditions: pure peptide, mean of triplicate assays
Method: as §1, §2

[6] = test system: T. brockianus; assay: Minimum inhibitory concentration assay (Thermus); conditions: pure peptide, mean of triplicate assays
Method: as §1, §2

[7] = test system: Thermus scotoductus SE-1; assay: Agar diffusion assay with cell free supernatant of producing strains; conditions: zone diameter relative to Nisin A wild type (100)
Method: (§3) Agar diffusion assays were carried out in triplicate using nisin producing and indicator (T. thermophilus HB27 and T. scotoductus Se-1) strains. Both the producer and indicator strains were cultured as per conditions described above. One ml of overnight culture of indicators were added to 50ml of molten Castenholz agar, briefly swirled and poured. Wells were made using sterile glass pipette. To generate cell free supernatant from nisin producing strains, 10 mls of overnight cultures of the strains were centrifuged at 950g for 20 mins. The cell free supernatant was transferred to a sterile tube. 50 µl of cell free supernatant was added to wells described above. Plates were incubated at 55°C for 3 days and the zone of clearance measured.
(§4) The cell free supernatant of nisin A and nisin variant producing L. lactis was used to determine the bioactivity of these lantibiotics against T. thermophilus HB27 and T. scotoductus SE-1 using agar diffusion assays, with the zone of clearance representing the bioactivity of the producing strain (i.e., representing a combination of the amount of the peptide produced and the specific activity of that peptide). […] Among the variants tested were those with altered N-terminal domains. The N-terminal domain of nisin is important for binding with the pyrophosphate moiety of lipid II to mediate pore formation in the cell membrane. Lysine (K) at position 12, which serves as a small flexible region between ring B and C, and is one of among the 5 positively charged residues (K12, K22, K34, H27, […]) of nisin A that contributes to its cationic nature and its attraction to the cell envelope.

[8] = test system: Thermus thermophilus HB27; assay: as above; conditions: zone diameter relative to Nisin A wild type (100)
Method: as §3, §4

Structure (SMILES) | MIC [1] [µM] | MIC [2] [µM] | MIC [3] [µM] | MIC [4] [µM] | MIC [5] [µM] | MIC [6] [µM] | % of wild type [7] | % difference [8] | fold better activity than nisin A [4] [fold]
C=C(NC(=O)[C@@H](NC(=O)[C@H](Cc1c[nH]cn1)NC(=O)[C@@H](NC(=O)[C@H](CO)NC(=O)[C@@H]1CS[C@@H](C)[C@H]2NC(=O)[C@H](C)NC(=O)[C@H](NC(=O)[C@H](CCCCN)NC(=O)[C@H](CCSC)NC(=O)[C@H](CC(N)=O)NC(=O)[C@@H]3CS[C@@H](C)[C@@H](NC(=O)[C@H](CCSC)NC(=O)[C@@H]4CS[C@@H](C)[C@@H](NC(=O)[C@@H]5CSC[C@@H](NC(=O)/C(=C/C)NC(=O)[C@@H](N)[C@@H](C)CC)C(=O)N[C@@H]([C@@H](C)CC)C(=O)NC(=C)C(=O)N[C@@H](CC(C)C)C(=O)N5)C(=O)N5CCC[C@H]5C(=O)NCC(=O)N4)C(=O)NCC(=O)N[C@@H](C)C(=O)N[C@@H](CC(C)C)C(=O)N[C@@H](CCSC)C(=O)NCC(=O)N3)[C@H](C)SC[C@H](NC2=O)C(=O)N[C@@H](Cc2c[nH]cn2)C(=O)N1)[C@@H](C)CC)C(C)C)C(=O)N[C@@H](CCCCN)C(=O)O [K12M] | 0.0156 (≈ 0.0524 µg/mL) | 0.0156 (≈ 0.0524 µg/mL) | 0.125 (≈ 0.42 µg/mL) | 0.0156 (≈ 0.0524 µg/mL) | 0.0078 (≈ 0.0262 µg/mL) | 0.0625 (≈ 0.21 µg/mL) | 118% | 118% | –
C=C(NC(=O)[C@@H](NC(=O)[C@H](Cc1c[nH]cn1)NC(=O)[C@@H](NC(=O)[C@H](CO)NC(=O)[C@@H]1CS[C@@H](C)[C@H]2NC(=O)[C@H](C)NC(=O)[C@H](NC(=O)[C@H](C)NC(=O)CNC(=O)[C@@H]3CCCN3C(=O)[C@@H]3CS[C@@H](C)[C@@H](NC(=O)[C@H](CCCCN)NC(=O)[C@@H]4CS[C@@H](C)[C@@H](NC(=O)[C@@H]5CSC[C@@H](NC(=O)/C(=C/C)NC(=O)[C@@H](N)[C@@H](C)CC)C(=O)N[C@@H]([C@@H](C)CC)C(=O)NC(=C)C(=O)N[C@@H](CC(C)C)C(=O)N5)C(=O)N5CCC[C@H]5C(=O)NCC(=O)N4)C(=O)NCC(=O)N[C@@H](C)C(=O)N[C@@H](CC(C)C)C(=O)N[C@@H](CCSC)C(=O)NCC(=O)N3)[C@H](C)SC[C@H](NC2=O)C(=O)N[C@@H](Cc2c[nH]cn2)C(=O)N1)[C@@H](C)CC)C(C)C)C(=O)N[C@@H](CCCCN)C(=O)O [PGA] | 0.0078 (≈ 0.025 µg/mL) | 0.0156 (≈ 0.05 µg/mL) | 0.125 (≈ 0.401 µg/mL) | 0.0312 (≈ 0.1 µg/mL) | 0.0156 (≈ 0.05 µg/mL) | 0.0625 (≈ 0.2 µg/mL) | – | 113% | –
C=C(NC(=O)[C@@H](NC(=O)[C@H](Cc1c[nH]cn1)NC(=O)[C@@H](NC(=O)[C@H](CO)NC(=O)[C@@H]1CS[C@@H](C)[C@H]2NC(=O)[C@H](C)NC(=O)[C@H](NC(=O)[C@H](CCCCN)NC(=O)[C@H](CCSC)NC(=O)[C@H](CC(N)=O)NC(=O)[C@@H]3CS[C@@H](C)[C@@H](NC(=O)[C@H](CC(C)C)NC(=O)[C@@H]4CS[C@@H](C)[C@@H](NC(=O)[C@@H]5CSC[C@@H](NC(=O)/C(=C/C)NC(=O)[C@@H](N)[C@@H](C)CC)C(=O)N[C@@H]([C@@H](C)CC)C(=O)NC(=C)C(=O)N[C@@H](CC(C)C)C(=O)N5)C(=O)N5CCC[C@H]5C(=O)NCC(=O)N4)C(=O)NCC(=O)N[C@@H](C)C(=O)N[C@@H](CC(C)C)C(=O)N[C@@H](CCSC)C(=O)NCC(=O)N3)[C@H](C)SC[C@H](NC2=O)C(=O)N[C@@H](Cc2c[nH]cn2)C(=O)N1)[C@@H](C)CC)C(C)C)C(=O)N[C@@H](CCCCN)C(=O)O [K12L] | 0.0078 (≈ 0.026 µg/mL) | 0.0156 (≈ 0.0521 µg/mL) | 0.0625 (≈ 0.209 µg/mL) | 0.0078 (≈ 0.026 µg/mL) | 0.0078 (≈ 0.026 µg/mL) | 0.0312 (≈ 0.104 µg/mL) | – | 120% | 2
C=C(NC(=O)[C@@H](NC(=O)[C@H](Cc1c[nH]cn1)NC(=O)[C@@H](NC(=O)[C@H](CO)NC(=O)[C@@H]1CS[C@@H](C)[C@H]2NC(=O)[C@H](C)NC(=O)[C@H](NC(=O)[C@H](CCCCN)NC(=O)[C@H](C)NC(=O)[C@H](C)NC(=O)[C@@H]3CS[C@@H](C)[C@@H](NC(=O)[C@H](CCCCN)NC(=O)[C@@H]4CS[C@@H](C)[C@@H](NC(=O)[C@@H]5CSC[C@@H](NC(=O)/C(=C/C)NC(=O)[C@@H](N)[C@@H](C)CC)C(=O)N[C@@H]([C@@H](C)CC)C(=O)NC(=C)C(=O)N[C@@H](CC(C)C)C(=O)N5)C(=O)N5CCC[C@H]5C(=O)NCC(=O)N4)C(=O)NCC(=O)N[C@@H](C)C(=O)N[C@@H](CC(C)C)C(=O)N[C@@H](CCSC)C(=O)NCC(=O)N3)[C@H](C)SC[C@H](NC2=O)C(=O)N[C@@H](Cc2c[nH]cn2)C(=O)N1)[C@@H](C)CC)C(C)C)C(=O)N[C@@H](CCCCN)C(=O)O [AAK] | 0.0156 (≈ 0.0507 µg/mL) | 0.0312 (≈ 0.101 µg/mL) | 0.0625 (≈ 0.203 µg/mL) | 0.0625 (≈ 0.203 µg/mL) | 0.0156 (≈ 0.0507 µg/mL) | 0.0156 (≈ 0.0507 µg/mL) | 132* (0.004) % | – | –
C=C(NC(=O)[C@@H](NC(=O)[C@H](Cc1c[nH]cn1)NC(=O)[C@@H](NC(=O)[C@H](CO)NC(=O)[C@@H]1CS[C@@H](C)[C@H]2NC(=O)[C@H](C)NC(=O)[C@H](NC(=O)[C@H](CCC(N)=O)NC(=O)[C@H](C)NC(=O)[C@@H]3CCCN3C(=O)[C@@H]3CS[C@@H](C)[C@@H](NC(=O)[C@H](CCCCN)NC(=O)[C@@H]4CS[C@@H](C)[C@@H](NC(=O)[C@@H]5CSC[C@@H](NC(=O)/C(=C/C)NC(=O)[C@@H](N)[C@@H](C)CC)C(=O)N[C@@H]([C@@H](C)CC)C(=O)NC(=C)C(=O)N[C@@H](CC(C)C)C(=O)N5)C(=O)N5CCC[C@H]5C(=O)NCC(=O)N4)C(=O)NCC(=O)N[C@@H](C)C(=O)N[C@@H](CC(C)C)C(=O)N[C@@H](CCSC)C(=O)NCC(=O)N3)[C@H](C)SC[C@H](NC2=O)C(=O)N[C@@H](Cc2c[nH]cn2)C(=O)N1)[C@@H](C)CC)C(C)C)C(=O)N[C@@H](CCCCN)C(=O)O [PAQ] | 0.0039 (≈ 0.0128 µg/mL) | 0.0078 (≈ 0.0256 µg/mL) | 0.0625 (≈ 0.205 µg/mL) | 0.0156 (≈ 0.0511 µg/mL) | 0.0156 (≈ 0.0511 µg/mL) | 0.0312 (≈ 0.102 µg/mL) | – | 138* (0.02) % | –
C=C(NC(=O)[C@@H](NC(=O)[C@H](Cc1c[nH]cn1)NC(=O)[C@@H](NC(=O)[C@H](CO)NC(=O)[C@@H]1CS[C@@H](C)[C@H]2NC(=O)[C@H](C)NC(=O)[C@H](NC(=O)[C@H](CCCCN)NC(=O)[C@H](C)NC(=O)[C@H](CC(N)=O)NC(=O)[C@@H]3CS[C@@H](C)[C@@H](NC(=O)[C@H](CCCCN)NC(=O)[C@@H]4CS[C@@H](C)[C@@H](NC(=O)[C@@H]5CSC[C@@H](NC(=O)/C(=C/C)NC(=O)[C@@H](N)[C@@H](C)CC)C(=O)N[C@@H]([C@@H](C)CC)C(=O)NC(=C)C(=O)N[C@@H](CC(C)C)C(=O)N5)C(=O)N5CCC[C@H]5C(=O)NCC(=O)N4)C(=O)NCC(=O)N[C@@H](C)C(=O)N[C@@H](CC(C)C)C(=O)N[C@@H](CCSC)C(=O)NCC(=O)N3)[C@H](C)SC[C@H](NC2=O)C(=O)N[C@@H](Cc2c[nH]cn2)C(=O)N1)[C@@H](C)CC)C(C)C)C(=O)N[C@@H](CCCCN)C(=O)O [M21A] | 0.0078 (≈ 0.0257 µg/mL) | 0.0312 (≈ 0.103 µg/mL) | 0.0312 (≈ 0.103 µg/mL) | 0.0078 (≈ 0.0257 µg/mL) | 0.0312 (≈ 0.103 µg/mL) | 0.0625 (≈ 0.206 µg/mL) | – | 158* (0.001) % | –
